In brackets after ≈: the same amount, converted by molar mass.

For 10 compounds, IC50 results are on record in BindingDB's records for PubMed 30282319 (Polytechnic Institute of Braganca, 2018).

The assay addresses alpha-glucosidase (Saccharomyces cerevisiae). Description: Inhibition of Saccharomyces cerevisiae alpha-glucosidase assessed as release of p-nitrophenol using pNPG as substrate preincubated for 15 mins followed by substrate addition and measured after 15 mins by plate reader analysis.
For `COc1c(O)cc(O)c2c(=O)c3cc(O)ccc3oc12`, the IC50 amounted to 13 µg/mL (≈ 47.4 µM).

Consider `COc1cc(OC)c2c(=O)c3c(O)c(OC)ccc3oc2c1O`, for which the IC50 is 59 µg/mL (≈ 185 µM). With `COc1ccc(O)c2c(=O)c3cc(O)ccc3oc12` [CHEBI:67553], the IC50 is 28 µg/mL (≈ 108 µM). `COc1c(O)cc2oc3ccc(O)c(OC)c3c(=O)c2c1O`: the IC50 was found to be 63 µg/mL (≈ 207 µM). For the compound `COc1c(O)cc2oc3ccc(O)cc3c(=O)c2c1O`, the IC50 came out at 7.6 µg/mL (≈ 27.7 µM).

For `COc1ccc2oc3ccc(O)cc3c(=O)c2c1`, the IC50 worked out at 77 µg/mL (≈ 318 µM). Regarding `COc1ccc2oc3ccc(O)cc3c(=O)c2c1OC`, the IC50 was found to be 49 µg/mL (≈ 180 µM).

For `O=c1c2cc(O)ccc2oc2cc(O)cc(O)c12` [1,3,7-trihydroxy-9H-xanthen-9-one], the IC50 was 3.2 µg/mL (≈ 13.1 µM). For `COc1cc(O)c2c(=O)c3cc(O)ccc3oc2c1OC` the value was 13 µg/mL (≈ 45.1 µM); for `O=c1c2cc(O)ccc2oc2cccc(O)c12` [CHEBI:4946], 36 µg/mL (≈ 158 µM).
